Experimental data: patent US20240109873A1, “ANTAGONISTS OF THE MUSCARINIC ACETYLCHOLINE RECEPTOR M4” (Vanderbilt University, priority 2020, published 2024)

Target: T1, human mAChR M4 (Homo sapiens, UniProt P08173)
T1 construct: expressed in transfected cells; host or cells: CHO-K1 (ATCC), co-transfected with chimeric G protein Gqi5
T1 sequence (P08173 1-479): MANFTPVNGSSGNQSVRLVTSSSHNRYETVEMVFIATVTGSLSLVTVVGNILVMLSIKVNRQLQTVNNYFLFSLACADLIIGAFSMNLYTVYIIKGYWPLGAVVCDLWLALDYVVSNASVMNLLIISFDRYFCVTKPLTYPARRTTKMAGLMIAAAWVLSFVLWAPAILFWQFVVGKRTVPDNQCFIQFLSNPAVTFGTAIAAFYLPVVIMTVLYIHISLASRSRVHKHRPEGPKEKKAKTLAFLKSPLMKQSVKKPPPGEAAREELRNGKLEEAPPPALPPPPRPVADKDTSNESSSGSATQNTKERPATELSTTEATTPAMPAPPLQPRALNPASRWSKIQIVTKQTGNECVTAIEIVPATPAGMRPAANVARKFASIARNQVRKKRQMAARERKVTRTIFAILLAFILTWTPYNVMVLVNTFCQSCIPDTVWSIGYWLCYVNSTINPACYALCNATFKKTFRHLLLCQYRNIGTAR
Test: mAChR M4 cell-based functional assay (calcium flux, antagonism of EC80 acetylcholine response, M4/Gqi5/CHO-K1 cells)
Settings: for remaining activity at 30 µM: CHO-K1, % ACh maximum at 30 μM, read-out: Human M4 Emin; for IC50: decrease of the response elicited by an EC80 concentration of acetylcholine, CHO-K1 cells, Gqi5
Experimental: Human or rat M4 cDNA, along with the chimeric G protein Gqi5, were transfected into Chinese hamster ovary (CHO-K1) cells purchased from the American Type Culture Collection using Lipofectamine2000. M4/Gqi5/CHO cells were grown in Ham's F-12 medium containing 10% heat-inactivated fetal bovine serum (FBS), 20 mM HEPES, 500 μg/mL G418 sulfate, and 200 μg/mL Hygromycin B.
For high throughput measurement of agonist-evoked increases in intracellular calcium, CHO-K1 cells stably expressing muscarinic receptors were plated in growth medium lacking G418 and hygromycin at 15,000 cells/20 μL/well in Greiner 384-well black-walled, tissue culture (TC)-treated, clear-bottom plates (VWR). Cells were incubated overnight at 37° C. and 5% CO2. The next day, cells were washed using an ELX 405 (BioTek) with assay buffer; the final volume was then aspirated to 20 μL. Next, 20 μL of a 2.3 μM stock of Fluo-4/acetoxymethyl ester (Invitrogen, Carlsbad, CA), prepared as a 2.3 mM stock in DMSO and mixed in a 1:1 ratio with 10% (w/v) Pluronic F-127 and diluted in assay buffer, was added to the wells and the cell plates were incubated for 50 min at 37° C. and 5% CO2. Dye was removed by washing with the ELX 405 and the final volume was aspirated to 20 μL. Compound master plates were formatted in a 10-point concentration-response curve (CRC) format (1:3 dilutions) in 100% DMSO with a starting concentration of 10 or 1 mM using a BRAVO liquid handler (Agilent). Test compound CRCs were then transferred to daughter plates (240 nL) using the Echo acoustic plate reformatter (Labcyte, Sunnyvale, CA) and then diluted into assay buffer (40 μL) to a 2× stock using a Thermo Fisher Combi (Thermo Fisher Scientific, Waltham, MA).
Calcium flux was measured using the Functional Drug Screening System (FDSS) 6000 or 7000 (Hamamatsu Corporation, Tokyo, Japan) as an increase in the fluorescent static ratio. Compounds were applied to cells (20 μL, 2×) using the automated system of the FDSS at 2 seconds into the protocol and the data were collected at 1 Hz. At 143 s, 10 μL of an EC20 concentration of the muscarinic receptor agonist acetylcholine was added (5×), followed by the addition of 12 μL of an EC80 concentration of acetylcholine at the 268 s time point (5×). Agonist activity was analyzed as a concentration-dependent increase in calcium mobilization upon compound addition. Positive allosteric modulator activity was analyzed as a concentration-dependent increase in the EC20 acetylcholine response. Antagonist activity was analyzed as a concentration-dependent decrease in the EC80 acetylcholine response; for the purposes of the tables herein, an IC50 (inhibitory concentration 50) was calculated as a concentration-dependent decrease of the response elicited by an EC80 concentration of acetylcholine. Concentration-response curves were generated using a four-parameter logistical equation in XLFit curve fitting software (IDBS, Bridgewater, NJ) for Excel (Microsoft, Redmond, WA) or Prism (GraphPad Software, Inc., San Diego, CA) or the Dotmatics software platform (Dotmatics, Bishop's Stortford, UK). […]
Compounds were synthesized as described above. Activity (IC50 and Emin) was determined in the mAChR M4 cell-based functional assay as described above and the data are shown in Table 2.

Row | remaining activity at 30 µM | IC50 | Compound
1 | 2% | 0.13 nM | [2H]C([2H])([C@H]1CCCCO1)N1C[C@H]2C[C@H](Nc3ccc(-c4cnccc4C(F)(F)F)nn3)C[C@H]2C1 [Compound 7, (3aR,5s,6aS)-2-(((R)-tetrahydro-2H-pyran-2-yl)methyl-d2)-N-(6-(4-(trifluoromethyl)pyridin-3-yl)pyridazin-3-yl)octahydrocyclopenta[c]pyrrol-5-amine]
2 | 3% | 0.086 nM | [2H]C([2H])([C@@H]1CCCCO1)N1C[C@H]2C[C@H](Nc3ccc(-c4cnccc4C(F)(F)F)nn3)C[C@H]2C1 [Compound 8, (3aR,5s,6aS)-2-(((S)-tetrahydro-2H-pyran-2-yl)methyl-d2)-N-(6-(4-(trifluoromethyl)pyridin-3-yl)pyridazin-3-yl)octahydrocyclopenta[c]pyrrol-5-amine]
3 | 2% | 1 nM | [2H]C([2H])(C1CCCOC1)N1C[C@H]2C[C@H](Nc3ccc(-c4cnccc4C(F)(F)F)nn3)C[C@H]2C1 (stereo partly drawn) [Compound 9, (3aR,5s,6aS)-2-((tetrahydro-2H-pyran-3-yl)methyl-d2)-N-(6-(4-(trifluoromethyl)pyridin-3-yl)pyridazin-3-yl)octahydrocyclopenta[c]pyrrol-5-amine]
4 | 3% | 0.56 nM | [2H]C([2H])(C1CCCCC1)N1C[C@H]2C[C@H](Nc3ccc(-c4cnccc4C(F)(F)F)nn3)C[C@H]2C1 [Compound 10, (3aR,5s,6aS)-2-(cyclohexylmethyl-d2)-N-(6-(4-(trifluoromethyl)pyridin-3-yl)pyridazin-3-yl)octahydrocyclopenta[c]pyrrol-5-amine]
5 | 2% | 0.86 nM | [2H]C([2H])(N1C[C@H]2C[C@H](Nc3ccc(-c4cnccc4C(F)(F)F)nn3)C[C@H]2C1)C1(F)CCOCC1 [Compound 11, (3aR,5s,6aS)-2-((4-fluorotetrahydro-2H-pyran-4-yl)methyl-d2)-N-(6-(4-(trifluoromethyl)pyridin-3-yl)pyridazin-3-yl)octahydrocyclopenta[c]pyrrol-5-amine]
6 | 2% | 0.77 nM | [2H]C1([2H])CC(C([2H])([2H])N2C[C@H]3C[C@H](Nc4ccc(-c5cnccc5C(F)(F)F)nn4)C[C@H]3C2)CC([2H])([2H])O1 [Compound 12, (3aR,5s,6aS)-2-((tetrahydro-2H-pyran-4-yl-2,2,6,6-d4)methyl-d2)-N-(6-(4-(trifluoromethyl)pyridin-3-yl)pyridazin-3-yl)octahydrocyclopenta[c]pyrrol-5-amine]
7 | 4% | 1.2 nM | [2H]C([2H])(C1CCOCC1)N1C[C@H]2C[C@H](Nc3ccc(-c4cnccc4C(F)F)nn3)C[C@H]2C1 [Compound 13, (3aR,5s,6aS)-N-(6-(4-(difluoromethyl)pyridin-3-yl)pyridazin-3-yl)-2-((tetrahydro-2H-pyran-4-yl)methyl-d2)octahydrocyclopenta[c]pyrrol-5-amine]
8 | 4% | 3.1 nM | [2H]C([2H])(C1CCOCC1)N1C[C@H]2C[C@H](Nc3nnc(-c4cnccc4C(F)(F)F)cc3C3CC3)C[C@H]2C1 [Compound 14, (3aR,5s,6aS)-N-(4-cyclopropyl-6-(4-(trifluoromethyl)pyridin-3-yl)pyridazin-3-yl)-2-((tetrahydro-2H-pyran-4-yl)methyl-d2)octahydrocyclopenta[c]pyrrol-5-amine]
9 | 7% | 2.4 nM | [2H]C([2H])(C1CCOCC1)N1C[C@H]2C[C@H](Nc3nnc(-c4cnccc4C(F)(F)F)cc3OC)C[C@H]2C1 [Compound 15, (3aR,5s,6aS)-N-(4-methoxy-6-(4-(trifluoromethyl)pyridin-3-yl)pyridazin-3-yl)-2-((tetrahydro-2H-pyran-4-yl)methyl-d2)octahydrocyclopenta[c]pyrrol-5-amine]
10 | 4% | 1.5 nM | [2H]C([2H])(C1CCOCC1)N1C[C@H]2C[C@H](Nc3nnc(-c4cnccc4C(F)(F)F)cc3C)C[C@H]2C1 [Compound 16, (3aR,5s,6aS)-N-(4-methyl-6-(4-(trifluoromethyl)pyridin-3-yl)pyridazin-3-yl)-2-((tetrahydro-2H-pyran-4-yl)methyl-d2)octahydrocyclopenta[c]pyrrol-5-amine]
11 | 26% | 2.8 nM | [2H]C([2H])(C1CCOCC1)N1C[C@H]2C[C@H](Nc3ccc(-c4cnc(C(F)(F)F)cc4C(F)(F)F)nn3)C[C@H]2C1 [Compound 17, (3aR,5s,6aS)-N-(6-(4,6-bis(trifluoromethyl)pyridin-3-yl)pyridazin-3-yl)-2-((tetrahydro-2H-pyran-4-yl)methyl-d2)octahydrocyclopenta[c]pyrrol-5-amine]
12 | 4% | 1.1 nM | [2H]C1([2H])CC(C([2H])([2H])N2C[C@H]3C[C@H](Nc4nnc(-c5cnccc5C(F)(F)F)cc4C)C[C@H]3C2)CC([2H])([2H])O1 [Compound 18, (3aR,5s,6aS)-N-(4-methyl-6-(4-(trifluoromethyl)pyridin-3-yl)pyridazin-3-yl)-2-((tetrahydro-2H-pyran-4-yl-2,2,6,6-d4)methyl-d2)octahydrocyclopenta[c]pyrrol-5-amine]
13 | 3% | 1.3 nM | [2H]C1([2H])CC(CN2C[C@H]3C[C@H](Nc4nnc(-c5cnccc5C(F)(F)F)cc4C)C[C@H]3C2)CC([2H])([2H])O1 [Compound 19, (3aR,5s,6aS)-N-(4-methyl-6-(4-(trifluoromethyl)pyridin-3-yl)pyridazin-3-yl)-2-((tetrahydro-2H-pyran-4-yl-2,2,6,6-d4)methyl)octahydrocyclopenta[c]pyrrol-5-amine]
14 | 2% | 6.4 nM | [2H]C([2H])(C1CCOCC1(C)C)N1C[C@H]2C[C@H](Nc3nnc(-c4cnccc4C(F)(F)F)cc3C)C[C@H]2C1 (stereo partly drawn) [Compound 20, (3aR,5s,6aS)-2-((3,3-dimethyltetrahydro-2H-pyran-4-yl)methyl-d2)-N-(4-methyl-6-(4-(trifluoromethyl)pyridin-3-yl)pyridazin-3-yl)octahydrocyclopenta[c]pyrrol-5-amine]
15 | 2% | 11 nM | [2H]C([2H])(C1CCOCC1(C)C)N1C[C@H]2C[C@H](Nc3nnc(-c4cnccc4C(F)(F)F)cc3OC)C[C@H]2C1 (stereo partly drawn) [Compound 21, (3aR,5s,6aS)-2-((3,3-dimethyltetrahydro-2H-pyran-4-yl)methyl-d2)-N-(4-methoxy-6-(4-(trifluoromethyl)pyridin-3-yl)pyridazin-3-yl)octahydrocyclopenta[c]pyrrol-5-amine]
